Measurements as given in patent US4073941A, “Aralkyl amides having antidepressive activity” (priority 1975, dated 1978).
Values after ≈ are worked out from the molar mass of the structure shown. Where a name gives a salt, the structure may show the parent alone. Read-outs that look alike come from different tables or passages of the source.

How the values were obtained:
[1] = tested on: uptake of 14C-5-HT (5-hydroxytryptamine) in brain slices; test: Inhibition of the uptake of 14C-5-HT in mouse midbrain slices, compound added in vitro; assay type: cell-based, mice; conditions: 5 min, concentration producing 50 percent decrease of active uptake (ED50), 5-HT 1×10^-7 M, 5 min incubation
Protocol: (§1) 1. Inhibition of the uptake of carbon-14 5-HT and tritiated noradrenaline in vitro and in vivo
(§2) The method is described by Ross, Renyi and Ogren in European Journal of Pharmacology 17 (1972), 107-112. Tricyclic antidepressant drugs of type imipramine added in vitro or given in vivo to mice decrease the uptake of ^14 C-5-HT and ^3 H-NA in vitro. In the in vitro experiments different concentrations of the test compound were added to the incubation medium. In the in vivo experiments different doses of the test drug were administered intraperitoneally half an hour before the animals were killed. The incubation performance was the same in the two types of experiments, i.e. the midbrain was taken out and sliced and incubated in a mixture consisting of, per 100 mg of brain slices, 0.2 n-mole of ^14 C-5-HT, 0.2 n-mole of ^3 H-NA and 11 μmole of glucose in 2 ml of Krebs-Henseleit buffer, pH 7.4. The incubation time was 5 minutes. The radioactive amines taken up in the slices were dissolved in Soluene-350® (Packard) and the amounts were determined with the double labelling technique by liquid scintillation. The concentration or dose producing 50 percent decrease of the active uptake (ED50) was determined graphically from dose-response curves. Active uptake is defined as that part of the radioactive uptake which is inhibited by a high concentration of cocaine. […]

[2] = tested on: uptake of 3H-NA (noradrenaline) in brain slices; test: Inhibition of the uptake of 3H-noradrenaline in mouse midbrain slices, compound added in vitro; assay type: cell-based, mice; conditions: 5 min, read-out: Inhibition (50 %) of uptake in vitro NA
Protocol: as §1, §2

[3] = tested on: uptake of 14C-5-HT (5-hydroxytryptamine) in brain slices; test: Inhibition of the uptake of 14C-5-HT in midbrain slices after in vivo i.p. administration to mice; conditions: Mus musculus, ip, 0.5 h; dose producing 50 percent decrease of active uptake (ED50); i.p. half an hour before killing; 5-HT 1×10^-7 M
Protocol: as §1
(§3) The method is described by Ross, Renyi and Ogren in European Journal of Pharmacology 17 (1972), 107-112. […] In the in vitro experiments different concentrations of the test compound were added to the incubation medium. In the in vivo experiments different doses of the test drug were administered intraperitoneally half an hour before the animals were killed. The incubation performance was the same in the two types of experiments, i.e. the midbrain was taken out and sliced and incubated in a mixture consisting of, per 100 mg of brain slices, 0.2 n-mole of ^14 C-5-HT, 0.2 n-mole of ^3 H-NA and 11 μmole of glucose in 2 ml of Krebs-Henseleit buffer, pH 7.4. The incubation time was 5 minutes. The radioactive amines taken up in the slices were dissolved in Soluene-350® (Packard) and the amounts were determined with the double labelling technique by liquid scintillation. The concentration or dose producing 50 percent decrease of the active uptake (ED50) was determined graphically from dose-response curves. Active uptake is defined as that part of the radioactive uptake which is inhibited by a high concentration of cocaine. All doses were given at least to four animals.

[4] = tested on: uptake of 3H-NA (noradrenaline) in brain slices; test: Inhibition of the uptake of 3H-noradrenaline in midbrain slices after in vivo i.p. administration to mice; conditions: Mus musculus, ip, 0.5 h; dose producing 50 percent decrease of active uptake (ED50); i.p. half an hour before killing; 1-noradrenaline 1×10^-7 M
Protocol: as §1, §3

[5] = tested on: 5-HTP induced behavioural syndrome in mice; test: 5-HTP response potentiation test; assay type: in vivo; conditions: Mus musculus, least dose producing maximal score (+3) in all animals, before dl-5-HTP 90 mg/kg i.v.
Protocol: 1. 5-HTP response potentiation test
Inhibition of the uptake of 5-HT potentiates the effects of administered 5-hydroxytryptophan (5-HTP) probably by increasing the amount of 5-HT at the receptor. Three mice are given the test drugs 1 hour (or 4, 24 hours) before d1-5-HTP 90 mg/kg i.v. 5-HTP alone gives only a weak behavioural syndrome but in pretreated mice there is seen a characteristic behavioural syndrome, which comes within 5 minutes: tremor, lordosis, abduction of the hindlegs, head-twiches. The strength of the syndrome is scored from 0 to +3. Each group consists of 3 animals and at least 4 groups were tested at 25 mg/kg i.p. Control groups receiving imipramine (Tofranil®) are used as reference, since imipramine constantly potentiated d1-5-HTP. The least dose of the test compound producing maximal score (+3) in all animals is estimated from a logarithmic dose-response curve, and is denoted "effective dose" in the following Table.

| Structure (SMILES) | IC50 [1] | IC50 ([2]; Mus musculus) | ED50 [3] | ED50 [4] | minimal effective dose [5] | IC50 ([2]; concentration producing 50 percent decrease of active uptake (ED50), 1-noradrenaline 1×10^-7 M, mouse midbrain slices, 5 min incubation) |
| --- | --- | --- | --- | --- | --- | --- |
| CC(N)C(=O)NC(C)(C)Cc1ccc(Cl)cc1 (stereo not shown) [GEA 609, 2-amino-N^1 - 3-(4-chlorophenyl)-2-methyl-2-propyl! propanoic acid amide hydrochloride] | 0.7 µg/mL | > 10 µg/mL | 20 mg/kg | > 40 mg/kg | 0.5 mg/kg | – |
| CN(C)CCCN1c2ccccc2CCc2ccccc21 [Imipramine, imipramine] | 0.1 µg/mL (≈ 0.357 µM) | – | 24 mg/kg | 6 mg/kg | 15 mg/kg | 0.06 µg/mL (≈ 0.214 µM) |
